Patent publication US6451796B1, “Fused pyrazine compounds” (Ono Pharmaceutical Co., Ltd., priority 1997, dated 2002)

What was measured:
Assay type in all cases: cell-based
[1] = Cytotoxicity test by MTT assay; settings: human; EC treated under conditions identical to adhesion molecule expression measurement; MTT 3 hours
Protocol: Furthermore, MTT [3-(4,5-dimethyl-2-thiazolyl)-2,5-diphenyl-2H-tetrazolium bromide] assay was enforced and the number of living cells was counted in order to estimate the effect of compound not to depend cytotoxicity on the above evaluation system.
(2) Cytotoxicity Test by MTT Assay
EC Were treated under conditions identical to those employed for measurement of adhesion molecules expression. After incubation, the wells were washed with PBS(−) once, added 100 μl of MTT solution (1 mg/ml) and incubated for 3 hours. After incubation supernatants were discarded and 100 μl of methanol added. After stirring, OD of each well read at 570 nm/690 nm in immunoreader. Inhibitory percentage was calculated as follows and IC50 value was estimated by percentage for control.
Inhibitory percentage (%)=[(C−S)/C)]×100
(§1) C: OD of the sample stimulated by cytokines
(§2) S: OD of the sample stimulated by cytokines in the presence of test compound

VCAM-1 expression = assay: Inhibition of VCAM-1 expression in HUVEC (cell ELISA); settings: Homo sapiens; HUVEC stimulated with TNFα plus IL-4 for 6 hours, ELISA of surface expression
Protocol: (§3) (1) Inhibition of Adhesion Molecules Expression in HUVEC
(§4) Human umbilical vein endothelial cells were cultured using MCDB104 medium (Nissui) containing 5% Fetal bovine serum supplemented antibiotics (100 U/ml penicillin, 100 μg/ml streptomycin (Gibco)), 0.01 mg/ml heparin (Nissui) and 0.005 mg/ml endothelial cells (EC) growth factor (Nissui) in gelatin coated 96-well microtiter plates by resulting in confluent monolayers.
(§5) The compounds were dissolved in dimethyl sulfoxide and prepared final 0.2% concentration in the medium and then added 50 μl into the well. Cytokine stimulation of EC was performed by adding 50 μl of 10 ng/ml TNFα (Genzyme) (for E-selectin. and ICAM-1 expression) or 50 μl of 10 ng/ml TNFα plus 1 ng/ml IL-4 (Genzyme)(for VCAM- expression).
(§6) After stimulation for 6 hours, the wells were washed with PBS(−) once and EC monolayers were fixed by incubating with methanol containing 0.3% hydrogen peroxide for 10 minutes at room temperature. After washing with PBS(−) three times, an ELISA was used to measure the expression of adhesion molecules on EC surface. The ELISA was performed at room temperature with three times washes with PBS(−) between each step. EC were incubated for 30 minutes in turn with 100 μl primary antibody which were anti-ICAM-1 antibody (BBA4), anti-E-selectin antibody (BBA2) or anti-VCAM-1 antibody (BBA6) (mouse IgG1, 1.25 μl/ml; R&D), with 100 μl of secondary antibody which was goat anti-mouse IgG conjugated peroxidase (dilution (1/400); Nordic Immunological laboratories). The enzyme substrate 1 mg/ml o-phenylenediamine/2HCl and 0.1% hydrogen peroxide of 100 μl was added and incubated for 4 minutes at room temperature.
(§7) Reaction was stopped with 50 μl of 8N sulfuric acid and optical density (OD) of each well read at 490 nm in immunoreder. Inhibitory percentage was calculated as follows and IC50 value was estimated by percentage for control.
(§8) Inhibitory percentage (%)=[(C−S)/(C−B)]×100
as §1, §2
(§9) B: OD of the nonstimulated sample

E-selectin expression = assay: Inhibition of E-selectin expression in HUVEC (cell ELISA); settings: Homo sapiens; HUVEC stimulated with TNFα for 6 hours, ELISA of surface expression
Protocol: as §3, §4, §5, §6, §7, §8, §1, §2, §9

ICAM-1 expression = assay: Inhibition of ICAM-1 expression in HUVEC (cell ELISA); settings: Homo sapiens; HUVEC stimulated with TNFα for 6 hours, ELISA of surface expression
Protocol: as §3, §4, §5, §6, §7, §8, §1, §2, §9

| IC50 (VCAM-1 expression) [µM] | IC50 (E-selectin expression) [µM] | IC50 (ICAM-1 expression) [µM] | Compound | IC50 [1] [nM] |
| --- | --- | --- | --- | --- |
| 0.032 | 0.103 | 0.073 | CC(C)Sc1nc2cccnc2n2c(C(F)(F)F)nnc12 [Example 3(16), 4-Isopropylthio-(5-trifluoromethyl-1,2,4-triazolo)[3,4-c]1,4,5-triazanaphthalene] | > 100000 |
| 0.2 | 0.6 | 0.4 | OCCCCCSc1nc2ccc(Cl)cc2n2c(C(F)(F)F)nnc12 [Example 3(73), 8-Chloro-4-(5-hydroxypentyl)thio-(5-trifluoromethyl-1,2,4-triazolo)[4,3-a]quinoxaline] | > 25000 |
| 0.95 | 1.04 | 0.95 | FC(F)(F)c1nnc2c(Sc3ccccc3)nc3ccccc3n12 [Compound (12), 4-Phenylthio(5-trifluoromethyl-1,2,4-triazolo)-[4,3-a]quinoxaline] | > 50000 |
